The values that follow are results of earlier work, collected in patent US20200003795A1, “DETERMINATION OF ANALYTES IN LIQUID SAMPLES BY MASS SPECTROMETRY” (Quest Diagnostics Investments Incorporated, priority 2001, published 2020).

By half-life is commonly meant the time in which the quantity being followed falls by half.

The structures appear in SMILES notation. Read-outs that look alike come from different tables or passages of the source.

For data set [1] the following is noted: circulating drug, at a therapeutic level of 1-10 μg/mL.
Experiment in data set [2]: not given
The source holds these as a separate data set.

On to `Nc1nnc(-c2cccc(Cl)c2Cl)c(N)n1` [lamotrigine, 6-(2,3-dichlorophenyl)-1,2,4-triazine-3,5-diamine], for which the bound to protein entry in data set [1] was “about 55%”. For the setting “circulating”, the therapeutic level is 1 to 10 µg/mL. The half-life (multiple doses) is 7.5 to 23.1 h and the half-life (single dose) is 6.4 to 30.4 h.
For `CO[C@H]1C[C@@H]2CC[C@@H](C)[C@@](O)(O2)C(=O)C(=O)N2CCCC[C@H]2C(=O)O[C@H]([C@H](C)C[C@@H]2CC[C@@H](O)[C@H](OC)C2)CC(=O)[C@H](C)/C=C(\C)[C@@H](O)[C@@H](OC)C(=O)[C@H](C)C[C@H](C)/C=C/C=C/C=C/1C` [sirolimus], in data set [2] (blood, trough), the “Therapeutic levels in blood” value was 3 to 18 ng/mL. The mean-time-to-peak concentration in data set [2] (on administration) was 1 to 2 h.
